Laboratory results published in patent US8754057B2, “Inhibition of apoptosis-specific eIF-5A(eIF-5A1″) with antisense oligonucleotides and siRNA as anti-inflammatory therapeutics” (Senesco Technologies, Inc., priority 2003, dated 2014).

Tests used:
[1] = tested on: lamina cribrosa cell line #517; assay: Hoescht staining apoptosis of siRNA-transfected lamina cribrosa cells treated with TNF-α and camptothecin; format: cell-based, human; conditions: 72 h after siRNA transfection, 24 h TNF-α plus camptothecin
Experimental: Lamina cribrosa cell line #517 cells were seeded at 7500 cells per well onto an 8-well culture slide. Three days later the LC cells were transfected with either apoptosis-specific eIF-5A siRNA #1 (SEQ ID NO:30) or control siRNA #5 (SEQ ID NO:34). 72 hours after transfection, the transfected cells were treated with 10 ng/ml TNF-α plus 50 μM camptothecin. Twenty-four hours later the cells were stained with Hoescht 33258 and viewed by fluorescence microscopy using a UV filter. Cells with brightly stained condensed or fragmented nuclei were counted as apoptotic. The results of two independent experiments are represented here.
Small inhibitory RNAs (siRNAs) directed against human apoptosis-specific eIF-5A were used to specifically suppress expression of eIF5A in lamina cribrosa cells. Six siRNAs were generated by in vitro transcription using the Silencer™ siRNA Construction Kit (Ambion Inc.), Four siRNAs were generated against human apoptosis-specific eIF-5A (siRNAs #1 to #4). […] The siRNAs were generated according to the manufacturer's protocol. […]
Transfected cells that had been treated with TNF-α and camptothecin for 24 hours were stained with Hoescht 33258 in order to determine the percentage of cells undergoing apoptosis. […] Cells with brightly stained or fragmented nuclei were scored as apoptotic. A minimum of 200 cells were counted per well. […]

[2] = tested on: lamina cribrosa cell line #506; assay: as above; format: cell-based, human; conditions: LC #506, 72 h after siRNA transfection, 24 h 10 ng/ml TNF-α plus 50 μM camptothecin
Experimental: Lamina cribrosa cell line #506 cells were seeded at 7500 cells per well onto an 8-well culture slide. Three days later the LC cells were transfected with either GAPDH siRNA, apoptosis-specific eIF-5A siRNAs #1-4 (SEQ ID NO:30-33), or control siRNA #5 (SEQ ID NO:34). 72 hours after transfection, the transfected cells were treated with 10 ng/ml TNF-α plus 50 μM camptothecin. Twenty-four hours later the cells were stained with Hoescht 33258 and viewed by fluorescence microscopy using a UV filter. Cells with brightly stained condensed or fragmented nuclei were counted as apoptotic. This graph represents the average of n=4 independent experiments.
Following transfection, RKO and lamina cribrosa cells were incubated for 72 hours prior to collection of cellular extract for Western blot analysis. In order to determine the effectiveness of the siRNAs directed against apoptosis-specific eIF-5A to block apoptosis, lamina cribrosa cells were treated with 50 μM of camptothecin (Sigma) and 10 ng/ml of TNF-α (Leinco Technologies) to induce apoptosis either 48 or 72 hours after transfection. The cells were stained with Hoescht either 24 or 48 hours later in order to determine the percentage of cells undergoing apoptosis.
Small inhibitory RNAs (siRNAs) directed against human apoptosis-specific eIF-5A were used to specifically suppress expression of eIF5A in lamina cribrosa cells. Six siRNAs were generated by in vitro transcription using the Silencer™ siRNA Construction Kit (Ambion Inc.), Four siRNAs were generated against human apoptosis-specific eIF-5A (siRNAs #1 to #4). […] The siRNAs were generated according to the manufacturer's protocol. The eIF5A and control siRNA targets had the following sequences: siRNA #1 5′ […] 3′ (SEQ ID NO: 81); siRNA #2 5′ […] 3′ (SEQ ID NO: 82); siRNA #3 5′ […] 3′ (SEQ ID NO: 83); siRNA #4 5′ […] 3′ (SEQ ID NO: 84); siRNA #5′ […] 3′ (SEQ ID NO: 85). Lamina cribrosa cells were transfected with siRNA using LipofectAMINE 2000.
Lamina cribrosa cells were transfected when cell confluence was at 40 to 70% and were generally seeded onto 8-well culture slides at 7500 cells per well three days prior to transfection. Transfection medium sufficient for one well of an 8-well culture slide was prepared by diluting 25.5 proles of siRNA to a final volume of 21.2 μl in Opti-Mem (Sigma). 0.425 μl of Lipofectamine 2000 was diluted to a final volume of 21.2 μl in Opti-Mem and incubated for 7 to 10 minutes at room temperature. The diluted Lipofectamine 2000 mixture was then added to the diluted siRNA mixture and incubated together at room temperature for 20 to 30 minutes, The cells were washed once with serum-free media before adding 135 μl of serum-free media to the cells and overlaying 42.4 μl of transfection medium. […]

With “siRNA #1: siRNA against human apoptosis-specific eIF-5A (SEQ ID NO:30); target 5′ AAAGGAATGACTTCCAGCTGA 3′ (SEQ ID NO: 81) (AAAGGAAUGACUUCCAGCUGATT; RNA, all phosphodiester, T or U not given here; listed as Homo sapiens)” the “reduce apoptosis of the LC line #517” value [1] was 53% and the “reduce apoptosis of LC cells” value [2] was 59%.
